Laboratory results from US20260240842A1, “METHODS TO PREVENT THERAPY RESISTANCE IN MELANOMA VIA BLOCKING GENOMIC INSTABILITY” (THE REGENTS OF THE UNIVERSITY OF CALIFORNIA, priority 2022, published 2026).

System: M229 and M245 cell lines
Assay: WGS of short-term treated cell lines: treatment-specific ecDNA+CGR genomic spans
Assay type: cell-based, human
Conditions: co-treatment with MAPKi for 10 to 11 days, FIG. 5H
Description: FIGS. 5A-5H. Resistance-driver ecDNAs and HSRs dynamically track with resistance and DNA-PKi prevents size-expansion of ecDNAs and CGRs early on MAPKi treatment. FIGS. 5A to 5C, Metaphase DNA-FISH of paired parental and acquired resistant BRAF^V600MUT (5A and 5B) or NRAS^Q61MUT (5C) cell lines without or with drug withdrawal showing ecDNA- or HSR-amplicons harboring BRAF, RAF1 or NRAS. Left, representative images; right, quantifications per cell. Ruler, 15 μm. P values (Unpaired two-tailed Student's t-test): *, p<0.05; **, p<0.01; ***, p<0.001. […] FIG. 5G: Representative images (left) and quantification (right) of metaphase DNA-FISH showing HSR harboring BRAF in M249 cells treated with vehicle or BRAFi+MEKi, with or without NU7026 and/or ABT888 for 31 days. […] FIG. 5H: Average total genomic spans of treatment-specific ecDNAs+CGRs in M229 and M245 cell lines (background ecDNA+CGR spans detected in vehicle-treated cells were filtered). […]
Genomic DNA (gDNA) and total RNA were extracted from frozen tumor tissue preserved in RNALater or snap-frozen tumor tissue using the QIAGEN AllPrep DNA/RNA Mini Kit and the Ambion mirVana miRNA Isolation Kit. […] After library construction, indexed libraries were quantified for equal molar pooling and paired-end sequenced with a read length of 2×150 bp on the Illumina NovaSeq 6000 S4 platform. […]

## O=c1cc(N2CCOCC2)oc2c1ccc1ccccc12 [NU7026]
  MAPKi-elicited treatment-specific ecDNA+CGR genomic spans: blunted the expansion of ecDNA+CGR genomic spans in both cell lines
